Experimental data published in US20250034196A1, “ESTER DERIVATIVES OF N4-HYDROXYCYTIDINE AND USE THEREOF” (priority 2021, published 2025).

Assays:
in vitro [1] = format: in vitro ADME; settings: microsomes, pH 7.4
Experimental: (§1) Preparation of Solutions: Stock solution (10 mM) of each of test compounds was prepared in DMSO. The stock solution for each compound was then diluted into 100 μM with acetonitrile.
(§2) Microsome Incubations: Incubation mixtures were prepared in a total volume of 200 μL with final component concentrations as follows: 0.1M PBS (pH 7.4), NADPH (2 mM) and liver microsomes (0.2 mg/mL) as well as test compound (1 μM) or Molnupiravir (1 μM) as a positive control, wherein the NADPH was added after a 5-min preincubation of all other components at 37° C. Pipette-mixed to achieve a homogenous suspension and immediately transferred 20 μL incubate as a 0 min sample to wells in a “Quenching” plate followed by adding 200 μL of acetonitrile with metolazone as IS and pipette-mixing. At 2, 5, 10, and 45 min, pipette-mixed the incubate and serially transfer samples of 20 μL incubate per time point to wells in a separate “Quenching” plate followed by adding 200 μL of acetonitrile with metolazone as IS and pipette-mixing.
(§3) Sample Analysis: The 96-well plate was centrifuged at 6000 g for 10 min. The supernatant was injected onto the LC-MS/MS system for analysis.

in vitro [2] = settings: African green monkey
Microsome stability = format: in vitro ADME, Monkey; settings: monkey, microsomes, pH 7.4
Experimental: as §1, §2, §3

in vivo = assay: in vivo; set-up: species or system Beagle Dogs; settings: dog, po; for Cmax: Cmax of EX-2/CH2101; for Tmax: Tmax of EX-2/CH2101; for AUC(0-t): AUClast of EX-2/CH2101; for concentration at 0.25 hr / concentration at 0.5 hr / concentration at 1 hr / concentration at 0.083 hr: Plasma concentration of EX-2/CH2101
Experimental: Example 174: Pharmacokinetic Study of EX-2 (CH2101), Molnupiravir (CH2017) and its Metabolite NHC (CH2018) Following a Single PO Administration of EX-2 (CH2101) or Molnupiravir (CH2017) in Male and Female Beagle Dogs
Both test compounds were prepared in 1% methyl cellulose (400 cps, SIGMA, SLCF9694) solution in purified water.
A total of 6 male+6 female Beagle Dogs, approximately 7-13 kg of bodyweight, were originally purchased from Marshall Biotechnology Co., Ltd. The animals were fasted overnight prior to dosing and food was re-provided after 4 hours post dosing.
The animals were restrained manually, and approximately 1 mL of blood at each time point was collected into pre-cooled EDTA-K2 tubes via cephalic or saphenous veins. Blood samples were centrifuged at 4° C. (4000 rpm. 5 min) to obtain plasma within 30 min after sample collection. All samples were stored at approximately −80° C. until analysis. The backup samples will be discarded after the in vivo experiment has been completed for two months unless requested.

[3] = tested on: SARS-CoV-2, Hongkong strain; format: in vivo, K18 hACE2 transgenic mice
in vitro [4] = format: in vitro ADME; settings: plasma
Experimental: as §1
Plasma Incubations: Plasma incubations were conducted in duplicate in 96-well plate at 37° C. Plasma was prewarmed in a total volume of 198 μL for 5 min at 37° C., then added 2 μL of 100 μM test compound into an incubation well containing plasma, pipette-mixed to achieve a homogenous suspension and immediately transferred 20 μL incubate as a 0 min sample to wells in a “Quenching” plate followed by adding 200 μL of acetonitrile with metolazone as internal standard (IS) and pipette-mixing. At 2, 5, 60, and 90 min, pipette-mixed the incubate and serially transfer samples of 20 μL incubate per time point to wells in a separate “Quenching” plate followed by adding 200 μL of acetonitrile with metolazone as IS and pipette-mixing.
as §3

For `CC(=O)ONc1ccn([C@@H]2O[C@H](CO)[C@@H](O)[C@H]2O)c(=O)n1` [EX-2], the half-life at 1 µM (in vitro [1]; dog) was 76.3 min, the half-life at 1 µM (in vitro [1]; human) was 33.5 min and the half-life at 1 µM (in vitro [1]; mouse) was 16.2 min. It also gave a half-life at 1 µM (in vitro [1]; rat) of 288 min, a CC50 at 4 days (in vitro [2]) of 18.2 µM and a half-life at 1 µM (Microsome stability) of 50.8 min. The Cmax (in vivo; both sexes, Beagle, 20 mg/kg) was 0.0128 µg/mL, the Tmax (in vivo; both sexes, Beagle, 20 mg/kg) was 15 min and the AUC(0-t) (in vivo; both sexes, beagle, 10 mg/kg) was 5.07 ng·h/mL. The Cmax (in vivo; both sexes, beagle, 10 mg/kg) was 0.0155 µg/mL, the concentration at 0.25 hr (in vivo; both sexes, beagle, 10 mg/kg) was 0.016 µg/mL and the concentration at 0.5 hr (in vivo; both sexes, beagle, 10 mg/kg) was 0.0107 µg/mL. It also gave a concentration at 1 hr (in vivo; both sexes, beagle, 10 mg/kg) of 0.0122 µg/mL, a Tmax (in vivo; both sexes, beagle, 10 mg/kg) of 26.3 min and an AUC(0-t) (in vivo; both sexes, beagle, 20 mg/kg) of 5.43 ng·h/mL. The concentration at 0.083 hr (in vivo; both sexes, beagle, 20 mg/kg) was 0.0112 µg/mL, the concentration at 0.25 hr (in vivo; both sexes, beagle, 20 mg/kg) was 0.0128 µg/mL and the concentration at 0.5 hr (in vivo; both sexes, beagle, 20 mg/kg) was 0.0105 µg/mL. For the same compound, the concentration at 1 hr (in vivo; both sexes, beagle, 20 mg/kg) was 0.0113 µg/mL, the “Plasma concentration of EX-1/NHC/CH2018” value (in vivo; both, Beagle, 20 mg/kg, 6 hr) was 0.401 µg/mL and the “Plasma concentration of EX-1/NHC/CH2018” value (in vivo; both, Beagle, 20 mg/kg, 8 hr) was 0.138 µg/mL. The “Plasma concentration of EX-1/NHC/CH2018” value (in vivo; both, Beagle, 20 mg/kg, 24 hr) was 0.0177 µg/mL, the “AUCmale/female of EX-1/NHC/CH2018” value (in vivo; both, beagle, 20 mg/kg) was 69.2% and the “AUCmale/female of EX-2/CH2101” value (in vivo; both, beagle, 20 mg/kg) was 96.1%. The “Plasma concentration of EX-1/NHC/CH2018” value (in vivo; both, beagle, 20 mg/kg, 0.083 hr) was 0.148 µg/mL, the “Plasma concentration of EX-1/NHC/CH2018” value (in vivo; both, beagle, 20 mg/kg, 0.25 hr) was 2.014 µg/mL and the “Plasma concentration of EX-1/NHC/CH2018” value (in vivo; both, beagle, 20 mg/kg, 0.5 hr) was 3.703 µg/mL. For the same compound, the “Plasma concentration of EX-1/NHC/CH2018” value (in vivo; both, beagle, 20 mg/kg, 1 hr) was 6.118 µg/mL, the “Plasma concentration of EX-1/NHC/CH2018” value (in vivo; both, beagle, 20 mg/kg, 2 hr) was 5.958 µg/mL and the “Plasma concentration of EX-1/NHC/CH2018” value (in vivo; both, beagle, 20 mg/kg, 4 hr) was 1.6 µg/mL. For the same compound, the AUC(0-t) (in vivo; female, Beagle, 20 mg/kg) was 5.54 ng·h/mL, the Cmax (in vivo; female, Beagle, 20 mg/kg) was 0.013 µg/mL and the Tmax (in vivo; female, Beagle, 20 mg/kg) was 15 min. The “Cmax of EX-2/CH2101” value (in vivo; female, beagle, 10 mg/kg) was 0.014 µg/mL, the “Tmax of EX-2/CH2101” value (in vivo; female, beagle, 10 mg/kg) was 60 min and the Cmax (in vivo; female, beagle, 10 mg/kg) was 0.0122 µg/mL. For the same compound, the concentration at 0.25 hr (in vivo; female, beagle, 10 mg/kg) was 0.014 µg/mL, the concentration at 1 hr (in vivo; female, beagle, 10 mg/kg) was 0.0122 µg/mL and the concentration at 0.25 hr (in vivo; female, beagle, 20 mg/kg) was 0.013 µg/mL. For the same compound, the concentration at 1 hr (in vivo; female, beagle, 20 mg/kg) was 0.0113 µg/mL, the AUC(0-t) (in vivo; male, Beagle, 20 mg/kg) was 5.32 ng·h/mL and the Cmax (in vivo; male, Beagle, 20 mg/kg) was 0.0125 µg/mL. For the same compound, the Tmax (in vivo; male, Beagle, 20 mg/kg) was 15 min, the AUC(0-t) (in vivo; male, beagle, 10 mg/kg) was 5.07 ng·h/mL and the Cmax (in vivo; male, beagle, 10 mg/kg) was 0.0179 µg/mL. For the same compound, the concentration at 0.25 hr (in vivo; male, beagle, 10 mg/kg) was 0.0179 µg/mL, the concentration at 0.5 hr (in vivo; male, beagle, 10 mg/kg) was 0.0107 µg/mL and the Tmax (in vivo; male, beagle, 10 mg/kg) was 15 min. For the same compound, the concentration at 0.083 hr (in vivo; male, beagle, 20 mg/kg) was 0.0112 µg/mL, the concentration at 0.25 hr (in vivo; male, beagle, 20 mg/kg) was 0.0125 µg/mL and the concentration at 0.5 hr (in vivo; male, beagle, 20 mg/kg) was 0.0105 µg/mL. For the same compound, the Survival proportions ([3]; 14-day study, twice daily days 0-6, CH2101 450 mg/kg PO, Remdesivir 25 mg/kg SC) was 100%, the “Antiviral efficacy in vivo (conclusion)” value ([3]; 450 mpk PO twice daily) was “optimal antiviral efficacy in vivo” and the “Clinical symptoms (observation)” value ([3]; CH2101 450 mpk PO twice daily days 0-6) was “no infection-related clinical symptom was observed”. For the same compound, the “Body weights (observation)” value ([3]; EX-2/CH2101 450 mpk PO twice daily days 0-6) was “without notable body weight loss observed”, the “Virus titer in lung” value ([3]; day 5, plaque assay, mean, twice daily days 0-4, CH2101 450 mpk PO, Remdesivir 25 mpk SC) was 2.64 Log 10 plaque#/g lung and the “Virus titer in lung, mean difference vs. group 1 (Vehicle group)” value ([3]; day 5, CH2101 450 mpk PO, Remdesivir 25 mpk SC) was 3.31 Log. For the same compound, the Median survival time ([3]; twice daily days 0-6, CH2101 450 mg/kg PO, Remdesivir 25 mg/kg SC) was “Undefined”, the half-life at 1 µM (in vitro [4]; dog) was 79.1 min and the half-life at 1 µM (in vitro [4]; human) was 11.6 min. For the same compound, the half-life at 1 µM (in vitro [4]; monkey) was 29.3 min, the half-life at 1 µM (in vitro [4]; mouse) was 7.4 min and the half-life at 1 µM (in vitro [4]; rat) was 87.8 min.
